# Test results published in US20170226059A1, “APOE4-TARGETED THERAPUTICS THAT INCREASE SIRT1” (The Regents of the University of California, priority 2014, published 2017).
# Entries after “also recorded” stand apart in the source; their conditions may differ. Where two headings read alike, the source gives them in different places.
# What was measured:
# SirT1 = assay: Primary AlphaLISA screening assay: SirT1 levels in N2a cells stably transfected with ApoE4; format: cell-based, mouse; settings: for SirT1 levels (dose-response): N2A neuroblastoma cells stably transfected with ApoE4
# Protocol: We have developed a primary screening assay that is HTS formatable; the assay would be done on N2a cells (mouse neuroblastoma cells) that have been stably transfected with ApoE3 and ApoE4. The cells are treated with drugs and the SirT1 levels are measured using the AlphaLISA assay that we have developed, e.g., as shown in FIG. 11. The illustrated AlphaLISA uses an antibody (Ab, E104, Abcam) that binds the C-terminus of SirT1 and is on the acceptor bead. The N-terminal Ab (D1D7, Abcam) is biotinylated and binds to the donor bead. For the primary assay the Neuro-2a (N2a) cells stably expressing similar levels of hApoE3 or hApoE4 are used. The primary assay can be done in triplicate. The N2a cells have reasonably good endogenous levels of APP thus avoiding the necessity of APP transfection. In general, for the assays N2a cells stably transfected with hApoE3 (E3) or hApoE4 (E4) are plated, e.g., at […] in 384-well plates in […] of growth medium and allowed to attached for 3 h. The E4 cells are treated with compounds overnight, E3 cells are controls. The following day, growth medium is removed and cells are lysed with AlphaLysis buffer complemented with protease and phosphatase inhibitors.
# Then, the AlphaLISA assay is run and molecules that can increase or reverse the SirT1 levels in ApoE4 cells are identified. A preliminary estimate, based on the initial screening which yielded two reproducible “hits” from a set of 1000 compounds, which is a 0.2% hit-rate. […] Our initial screening was done on a small library of about 1000 compounds. The assay is translatable to a HTS format.
# ADAM10 mRNA = ADAM10 mRNA levels / transcription in A172 cells transfected with ApoE4; format: cell-based, human; settings: A03 at 2 uM
# [1] = Brain penetration after subcutaneous injection in mice; format: in vivo
# Protocol: Pharmacokinetic (PK) analysis for CNS exposure studies can consist of a time course design to collect heparinized plasma and brains (Korfmacher et al. (2001) Rapid Commun. Mass. Spectrom. 15(5): 335-340; Mei et al. (2006) AAPS J. 8(3): E493-500; Spilman et al. (2014) Brain Res. 1551: 25-44). Five non-transgenic mice can be used for the PK studies, and 1, 2, 4, 6, and 8 hour time points taken. Following oral, and either sc or ip administration of the molecules at 10 mg/kg, plasma and brain levels of the compounds can be determined by quantitative LC/MS/MS methodology. Plasma samples can be precipitated with acetonitrile:methanol (1:1) cocktail containing an internal standard. The brain samples can be homogenized directly in ethylacetate or extracted from 5M guanidine homogenates with liquid-liquid method. The resulting supernatant can be evaporated to dryness and subjected to the LC/MS/MS analysis. For each compound 3 mice can be used for this analysis. The brain-to-plasma ratios and brain levels can then be calculated to identify the best candidate(s) for further efficacy testing.
# p-tau = assay: p-Tau levels in SHSY5Y; format: cell-based
# Protocol: sAPPα or sAPPβ secreted into the cellular media are determined with sAPPα or sAPPβ AlphaLISA immunoassay kits (PerkinElmer) according to the manufacturer's protocol with some modifications. The standards, blanks, and media are diluted with the buffer provided in the kit and added to the plate. During the first incubation step, the analyte is captured either by an antibody recognizing the α-secretase cleavage site at sAPPα C-terminus (clone 2B3) or the sAPPβ C-terminus, and then by a second biotin-labeled antibody specific to the N-terminal common domain of sAPP. In the second incubation step, the biotinylated anti-analyte antibody is bound to the streptavidin-coated donor beads. At the end of this reaction, the plates are read on an EnSpire Alpha 2390 multilabel plate reader equipped with the AlphaScreen module. The Aβ1-42 or 1-40 are determined from media and/or cells using Life Science's sandwich ELISA kit. The levels of Aβ are quantified from a standard curve and normalized to total cellular protein (Spilman et al. (2014) Brain Res. 1551: 25-44; Theendakara et al. (2013) Proc. Natl. Acad. Sci. USA, 10(45): 18303-18308), Tau and p-tau are determined from cell extracts by a solid phase double antibody sandwich ELISA technology designed for quantitative determination of phospho-tau (Antibodies-Online). […]
# [2] = rodents, high doses; cited from earlier work
# [3] = Phase1 human trials, up to 200 mgs bid; cited from earlier work
# sAPPα = sAPPα levels in the presence of ApoE4 (AlphaLISA); format: cell-based; settings: in the presence of ApoE4 (ApoE4-transfected cells); listed as Alaproclate
# Protocol: sAPPα or sAPPβ secreted into the cellular media are determined with sAPPα or sAPPβ AlphaLISA immunoassay kits (PerkinElmer) according to the manufacturer's protocol with some modifications. The standards, blanks, and media are diluted with the buffer provided in the kit and added to the plate. During the first incubation step, the analyte is captured either by an antibody recognizing the α-secretase cleavage site at sAPPα C-terminus (clone 2B3) or the sAPPβ C-terminus, and then by a second biotin-labeled antibody specific to the N-terminal common domain of sAPP. In the second incubation step, the biotinylated anti-analyte antibody is bound to the streptavidin-coated donor beads. At the end of this reaction, the plates are read on an EnSpire Alpha 2390 multilabel plate reader equipped with the AlphaScreen module. The Aβ1-42 or 1-40 are determined from media and/or cells using Life Science's sandwich ELISA kit. The levels of Aβ are quantified from a standard curve and normalized to total cellular protein (Spilman et al. (2014) Brain Res. 1551: 25-44; Theendakara et al. (2013) Proc. Natl. Acad. Sci. USA, 10(45): 18303-18308), Tau and p-tau are determined from cell extracts by a solid phase double antibody sandwich ELISA technology designed for quantitative determination of phospho-tau (Antibodies-Online). APP and p-APP are determined by the DuoSet IC ELISA (R&D Systems) to measure phosphorylated APP in cell lysates. An immobilized capture antibody specific for APP binds both phosphorylated and unphosphorylated APP. After unbound material is washed away, a biotinylated detection antibody is used to detect either APP or phosphor-APP utilizing a standard HRP format. Using these assay procedures we notice a significant increase in p-tau and p-APP levels in ApoE4-transfected cells. It can be determined whether the primary “hits” reverse the ApoE4-mediated APP-Thr phosphorylation and tau-phosphorylation.
# SirT1 mRNA = SirT1 mRNA levels in A172 cells transfected with ApoE4 (quantitative real-time PCR); format: cell-based, human; settings: A03 at 2 μM
# Protocol: Total RNA from transfected and drug-treated cells is isolated using the High Pure RNA isolation kit (Roche) and 1 μg of RNA is reverse-transcribed. To analyze the mRNA levels of SirT1, real time PCR can be performed on first-strand cDNAs as described (Theendakara et al. (2013) Proc. Natl. Acad. Sci. USA, 10(45): 18303-18308). The real-time PCR can be performed in Light Cycler 480-384-multiwell plates (Roche). Primers for SirT1 were designed using the Roche universal probe library system and the primers were synthesized by Integrated DNA Technology. Real-time PCR can be performed in SYBR Green master mix with the corresponding primer sets. The melting curves of PCR products are monitored to ensure that a single melting curve is obtained. For analysis of the real-time PCR data, δCt values of samples are normalized to values obtained for GAPDH, which is assayed simultaneously. Relative quantification using the DeltaDelta Ct method can be adopted to calculate the relative quantity of SirT1 levels.
smiles,measurement,setting,value
"CC(N)C(=O)OC(C)(C)Cc1ccc(Cl)cc1 (centres unmarked) [Compound A03, 1-(4-chlorophenyl)-2-methylpropan-2-yl 2-aminopropanoate]",EC20 for SirT1 enhancement,SirT1; N2A cells stably transfected with ApoE4,0.2 µM
same,EC50,"SirT1; N2A cells stably transfected with ApoE4, read-out: EC50 for SirT1 enhancement",~2 µM
same,SirT1 levels (dose-response),SirT1,generated a SirT1 dose-response; also recorded: SirT1 levels increasing with dose
same,SirT1 levels (dose-response),SirT1; listed as Alaproclate,increases
same,SirT1 levels (dose-response),SirT1; listed as alaproclate,increase SirT1 levels in a dose responsive manner
same,ADAM10 mRNA levels / transcription,ADAM10 mRNA,normalized; also recorded: normalization of ADAM10 transcription
same,ADAM10 mRNA levels / transcription,ADAM10 mRNA; listed as Alaproclate,increased
same,brain penetration / brain permeability,[1],excellent brain penetration
same,brain penetration / brain permeability,[1]; listed as alaproclate,highly brain permeable
same,Kp,"[1]; mouse, brain and plasma, sc, 10 mg/kg, read-out: brain/plasma (B/P)",~10
same,p-Tau levels,p-tau,decreased
same,liver toxicity,[2],observed liver toxicity
same,adverse events,[3],no observed adverse events
same,global scores,[3],some improvements in global scores
same,sAPPα levels,sAPPα,increases
same,mRNA levels of SirT1,SirT1 mRNA,normalized; also recorded: normalize the mRNA levels for SirT1
same,mRNA levels of SirT1,SirT1 mRNA; listed as Alaproclate,increased
